Data published in paper PMC11876601 (Molecular Systems Biology, 2025).
Like-named read-outs stand apart in the source and are kept apart here.

Experiments:
Test in all cases: cells
Design in all cases: Viability of PDAC cell lines, ATPlite luminescence, 11-dose single-agent curve fit
PaTu-8988-T = details: 72 h
Experimental: (§1) Afterward, small amounts were transferred to 384-well intermediate plates (Greiner Bio-One GmbH, Germany). […] For drug combination screening, 1000 to 5000 cells were seeded into 384-well plates (CulturPlate™, Perkin Elmer, MA, USA) using a Multidrop™ Combi Reagent Dispenser (Thermo Scientific, MA, USA) in 50 µl medium per well 24 h prior to drug treatment (seeding densities see Appendix Table S1). […] The final DMSO concentration in each well was 0.2%. […] Eight wells per plate without library drug served as negative controls, and sixteen wells per plate containing 5 µM Staurosporine served as positive controls. […] Next, we analyzed the drug sensitivity of immortalized duct cell line HPDE to detect effects unrelated to pancreatic cancer.

PSN-1 = test system: PSN-1
Experimental: as §1

BxPC-3 = test system: BxPC-3
Experimental: as §1

AsPC-1 = test system: AsPC-1
Experimental: as §1

FAMPAC = details: 72 h
Experimental: as §1

MiaPaCa-2 = test system: MiaPaCa-2
Experimental: as §1

Colo-357 = test system: Colo-357
Experimental: as §1

HPDE = details: 72 h
Experimental: as §1

Dan-G = details: 72 h
Experimental: as §1

HuP-T4 = test system: HuP-T4
Experimental: as §1

Suit2-07 = details: 72 h
Experimental: as §1

PANC-1 = test system: PANC-1
Experimental: as §1

Capan-1 = test system: Capan-1
Experimental: as §1

[1] = Homo sapiens, PaTu 8988t, read-out: EC50 [nM]
[2] = Homo sapiens, PSN1, 72 h, read-out: EC50 [nM]
[3] = Homo sapiens, BXPC-3, 72 h, read-out: EC50 [nM]
[4] = Homo sapiens, ASPC1, 72 h, read-out: EC50 [nM]
[5] = Homo sapiens, MIA PaCa-2, 72 h, read-out: EC50 [nM]
[6] = Homo sapiens, COLO357, 72 h, read-out: EC50 [nM]
[7] = Homo sapiens, HuP-T4, 72 h, read-out: EC50 [nM]
[8] = Homo sapiens, PANC-1, 72 h, read-out: EC50 [nM]
[9] = Homo sapiens, CAPAN-1, 72 h, read-out: EC50 [nM]

| SMILES | EC50 (PaTu-8988-T; [1]) [nM] | EC50 (PSN-1; [2]) [nM] | EC50 (BxPC-3; [3]) [nM] | EC50 (AsPC-1; [4]) [nM] | EC50 (FAMPAC; read-out: EC50 [nM]) [nM] | EC50 (MiaPaCa-2; [5]) [nM] | EC50 (Colo-357; [6]) [nM] | EC50 (HPDE; HPDE, read-out: EC50 [nM]) [nM] | EC50 (Dan-G; read-out: EC50 [nM]) [nM] | EC50 (HuP-T4; [7]) [nM] | EC50 (Suit2-07; read-out: EC50 [nM]) [nM] | EC50 (PANC-1; [8]) [nM] | EC50 (Capan-1; [9]) [nM] | other results |
| --- | --- | --- | --- | --- | --- | --- | --- | --- | --- | --- | --- | --- | --- | --- |
| Cc1c(F)cc(C(=O)NC2CC2)cc1-c1ccc(C(=O)NCC(C)(C)C)cn1 [Losmapimod] | 1180 | 130 | 536 | 361 | 0.11 | 449 | 26.1 | 25.6 | 363 | 218 | 10.7 | 95.7 | 150 | – |
| Cc1cccc(-c2[nH]c(CNc3ccccc3F)nc2-c2ccc3ncnn3c2)n1 [Vactosertib] | 838 | 4290 | 2150 | 78.2 | 3450 | 6110 | 7510 | 217 | 51.8 | 17.8 | 0.8 | 3660 | 809 | – |
| Clc1ccc(Nc2nnc(Cc3ccncc3)c3ccccc23)cc1 [Vatalanib] | 3840 | 4870 | 9360 | > 10000 | 6650 | > 10000 | 3990 | 32.8 | 6860 | 23.9 | > 10000 | > 10000 | 4530 | – |
| CCN(CCCOc1ccc2c(Nc3cc(CC(=O)Nc4cccc(F)c4)[nH]n3)ncnc2c1)CCOP(=O)(O)O [Barasertib] | 10300 | 32.6 | 53.6 | 56.3 | 40.1 | 4.24 | 852 | 74.6 | 296 | 56.8 | 3290 | 74 | 42 | – |
| Cc1cn(-c2cc(NC(=O)c3ccc(C)c(Nc4nccc(-c5cnccn5)n4)c3)cc(C(F)(F)F)c2)cn1 [Radotinib] | 1390 | 11 | 1780 | 1050 | 4270 | 3580 | 196 | 6.45 | 5910 | > 10000 | 99.5 | 260 | 4010 | – |
| C[C@@H](c1ccc2nccn2c1)n1nnc2ncc(-c3cnn(C)c3)nc21 [Volitinib] | > 10000 | 16.9 | 2030 | 114 | 1030 | 8640 | 226 | 80 | 5780 | 91.1 | 285 | 3950 | > 10000 | – |
| COCCNc1cc(NC(=O)N2CCCc3cc(CN4CCN(C)CC4=O)c(C=O)nc32)ncc1C#N [Roblitinib] | > 10000 | 4040 | 5220 | 0.56 | 7290 | 207 | > 10000 | 0.09 | 150 | 60.7 | 7.75 | 1060 | 25.8 | – |
| FC(F)(F)c1ccc(CNc2ccc(Cc3c[nH]c4ncc(Cl)cc34)cn2)cn1 [Pexidartinib] | 46.5 | 6940 | 8880 | 9890 | 4000 | 2640 | 10100 | 10200 | 6180 | 4690 | 1100 | 2210 | > 10000 | – |
| Cc1cc(F)c(C(=O)Nc2cccc(-c3nncn3C(C)C)n2)cc1-n1cnc(C2CC2)c1 [Selonsertib] | 5440 | 6150 | > 10000 | 755 | > 10000 | 4950 | > 10000 | > 10000 | 10300 | 3.85 | 4310 | 8800 | 8570 | – |
| COc1cc2nccc(Oc3ccc(NC(=O)NC4CC4)c(Cl)c3)c2cc1C(N)=O [Lenvatinib] | > 10000 | 7480 | > 10000 | 394 | 164 | 4890 | 4390 | > 10000 | 39.1 | 0.14 | 0.2 | 655 | 7850 | – |
| O=C(Nc1cnn2ccc(N3CCC[C@@H]3c3cc(F)ccc3F)nc12)N1CC[C@H](O)C1 [Larotrectinib] | – | – | – | – | – | – | – | – | – | – | – | – | – | EC50 (PaTu-8988-T; read-out: EC50): 678 nM; EC50 (PSN-1; 72 h, read-out: EC50): 270 nM; EC50 (BxPC-3; 72 h, read-out: EC50): 357 nM; EC50 (AsPC-1; 72 h, read-out: EC50): 53.5 nM; EC50 (FAMPAC; read-out: EC50): 842 nM; EC50 (MiaPaCa-2; 72 h, read-out: EC50): 53.6 nM; EC50 (Colo-357; 72 h, read-out: EC50): 34.9 nM; EC50 (HPDE; read-out: EC50): 459 nM; EC50 (Dan-G; read-out: EC50): 451 nM; EC50 (HuP-T4; 72 h, read-out: EC50): 148 nM; EC50 (Suit2-07; read-out: EC50): 196 nM; EC50 (PANC-1; 72 h, read-out: EC50): 211 nM; EC50 (Capan-1; 72 h, read-out: EC50): 3880 nM |
| C[C@H]1Oc2cc(cnc2N)-c2c(nn(C)c2C#N)CN(C)C(=O)c2ccc(F)cc21 [Lorlatinib] | 5400 | 554 | 1270 | 4980 | 207 | 2650 | 6220 | 999 | 3210 | 1320 | 3240 | 8920 | 1070 | – |
